# Measurements published in patent publication US5610185A, “Method for the treatment of hyperproliferative epithelial skin diseases by topical application of hydroxylated aromatic protein cross-linking compounds” (The United States of America as represented by the …, priority 1995, dated 1997).
# Entries after “also recorded” stand apart in the source; their conditions may differ.
# Tests used:
# NIH 3T3 fibroblasts = assay: Protein envelope formation in NIH 3T3 fibroblasts; assay type: cell-based
# athymic nude mouse skin = assay: Acute topical toxicity on athymic nude mouse skin; assay type: in vivo
# Protocol: FIGS. 9A, 9B, 9C, 9D and 9E show color photographs. Topical Application of MC on Athymic Nude Mouse Skin. Histological sections were taken from paraffin-embedded tissue and were stained with hematoxylin and eosin. Panel a is vehicle control; panel b is 100 μM MC; panel c is 1 mM MC; panel d is 10 mM MC; and panel e is 100 mM MC. Magnification is 200x.
# FIGS. 13A, 13B and 13C show color photographs of mice. […] Photographs were taken after animal sacrifice upon termination of the experiments.
# Acute topical toxicity of MC was assessed by its application to athymic mouse skin and observation for inflammation, ulceration or other signs of toxicity after 5x weekly applications for 2 weeks and by microscopical analysis of paraffin-embedded sections of athymic mouse skin after MC application. Male nu/nu mice, 8 weeks old, were subdivided into 5 treatments groups and MC was administered topically in 10% DMSO in acetone vehicle. Mice were treated with a control vehicle, 100 μM MC, 1 mM MC, 10 mM MC or 100 mM MC. Treatment was 5 times per week for two weeks, after which animals were sacrificed and dorsal skin was fixed in Carnoy's solution at 4° C. for 24 hours followed by ethanol 100%. Histological sections were taken from paraffin-embedded tissue and were stained with hematoxylin and eosin. FIG. 13 illustrates the effect of MC on the skin of nude mice.
# Male nu/nu mice, 8 weeks old, were subdivided into treatment groups and MC was administered topically to dorsal skin in 10% DMSO in acetone vehicle (25 μl). Treatment was 5 times per week for two weeks. […] MC itself is yellow-brown, so some discoloration would be expected due to drug deposition and accumulation at this high concentration.
# [1] = system: A431 human epidermoid carcinoma cells; assay: Cornified envelope (cross-linked protein) assay, A431 cells; assay type: cell-based
# From the text: FIG. 5. Cross-linked Protein Production vs Growth Inhibition in A431 ([…]) Cells. Cell growth is represented by black circles and crosslinked protein production by white circles. Results are ±SD (n=3) of one experiment, representative of three.
# Primary mouse keratinocytes were isolated from BALB/c newborn mouse skin. Primary keratinocytes, the benign neoplastic keratinocyte cell lines 308 and SP-1 (Strickland et al, Cancer Res., 48, 165-169, 1988) and the mouse squamous cell carcinoma line 1-7 (Greenhalgh et al., Proc. Natl. Acad. Sci., 87, 643-647, 1990) were grown in Eagle's minimal essential medium with 8% fetal calf serum (FCS) (chelexed) and penicillin 20 iu/ml, streptomycin 20 ug/ml (P/S). […]
# Cells were incubated with MC for 48 hours, then cross-linked protein was isolated and measured as described in Example 1.
# The assay measures insoluble cross-linked protein envelopes as described (Hough-Monroe et al. Analytical biochem., 199, 25-28, 1991), with modifications as follows. […] Absorbance of eluate was measured on a Titertek plate reader at 600 nm.
# Cells were seeded at low density and were treated with MC for 3 days. Cells were then counted and increase in cell number was compared to untreated controls, or cells were processed for cross-linked protein (FIG. 5).
# [2] = system: SQCC-Y1 human squamous carcinoma cells; assay: Cornified envelope (cross-linked protein) assay, SQCC-Y1 cells; assay type: cell-based; details: SQCC-Y1, 48 h, 0.1-1 mM
# [3] = system: primary mouse keratinocytes; assay: MTT cytotoxicity assay; assay type: cell-based; details: within 4 hours, medium with 1.4 mM Ca2+
# Protocol: FIGS. 3A and 3B. A: Time course for cornification of primary mouse keratinocytes in response to MC. Boxes represent […] Ca^2+, triangles represent 100 μM MC, 1.4 mM Ca^2+, and solid circles represent 1 mM MC, 1.4 mM Ca^2+. […] Cells were incubated in medium with 1.4 mM Ca^2+ and MC for 4 hours, then were incubated with MTT (0.5 mg/ml in medium) for a further 4 hours before determination of formazan production.
# MTT is a dye which is reduced by mitochondrial dehydrogenase enzymes to a blue formazan product. Ability of cells to reduce MTT can be used to measure cell viability (Mosmann T., J. Immunol. Methods, 65, 55-63, 1983). Cells were incubated in 96 well plates with or without MC for the indicated time, then were incubated for a further 4 hours with 0.5 mg/ml MTT. Medium was removed and 88.9% DMSO, 11.11% glycine buffer (100 mM glycine, 100 mM NaCL pH 10.5) was added to each well. Plates were shaken for 20 minutes to allow formazan dissolution, then absorbance was measured on a plate reader at 570 nm.
# [4] = system: primary mouse keratinocytes; assay: Growth inhibition (cell count), primary mouse keratinocytes; assay type: cell-based; details: Keratinocyte, 72 h, 25 μM MC, 3 days, read-out: cells that continued to grow
# Protocol: FIG. 4. Cross-linked Protein Production vs Growth Inhibition in Mouse Primary Keratinocytes. Cell growth is represented by black squares and cross-linked protein production by white squares. Results are ±SD (n=3) of one experiment, representative of three.
# Cells were seeded at low density and were treated with MC for 3 days. Cells were then counted and increase in cell number was compared to untreated controls, or cells were processed for cross-linked protein. (FIG. 4) Protein cross-linking was rapid, commencing within 4 hours at 1 mM in mouse primary keratinocytes, (FIG. 3A) and was accompanied by cell death, as measured by the MTT assay (FIG. 3B).
smiles,measurement,setting,value
"COC(=O)C=Cc1cc(O)ccc1O [MC, methyl 2,5-dihydroxycinnamate]",effect of DTT on cross-linking by MC,"NIH 3T3 fibroblasts; 3T3 cells, simultaneous DTT 20 mM, 37° and 4° C.",prevented cross-linking
same,protein envelopes induced in NIH 3T3 fibroblasts,NIH 3T3 fibroblasts; even when incubated at 4° C. in phosphate buffered saline,induced protein envelopes
same,microscopy: inflammatory infiltrates,"athymic nude mouse skin; mouse, in vivo",focal inflammatory infiltrates were visible
same,microscopy: necrosis,"athymic nude mouse skin; mouse, in vivo",no obvious necrosis
same,microscopy: vacuolation of epidermal cells,"athymic nude mouse skin; mouse, in vivo",some vacuolation of epidermal cells
same,systemic toxicity or changes in skin at the application site,"athymic nude mouse skin; mouse, in vivo",No changes were observed
same,acute toxicity or inflammation by microscopy,"athymic nude mouse skin; up to 10 mM, topical, normal athymic mouse skin",not acutely toxic or inflammatory
same,cross-linked protein (envelope production),"[1]; A431, 48 h, 0.1-1 mM",induced crosslinked envelope production; also recorded: increased cross-linked protein in a dose-dependent manner
same,minimal effective concentration,"[1]; Homo sapiens, A-431, 72 h, A431, 3 days, read-out: concentration at which protein cross-linking is evident",≥ 250 µM
same,cross-linked protein (envelope production),[2],induced crosslinked envelope production; also recorded: increased cross-linked protein in a dose-dependent manner
same,MTT reduction / cell death,[3],cell death; also recorded: Inhibits MTT Reduction
same,activity at 25 µM,[4],20%
